Source: patent US20230060425A1, “FUSED BICYCLIC HETEROCYCLE DERIVATIVES AS PESTICIDES” (Bayer Aktiengesellschaft, priority 2019, published 2023)
Like-named read-outs stand apart in the source and are kept apart here.

Experiments:
Assay type in all cases: in vivo
[1] = test system: Heliothis armigera; experiment: Heliothis armigera test (HELIAR S); settings: Helicoverpa armigera, 6 dai, read-out: % Efficacy
Procedure: Heliothis armigera Test (HELIAR S)
(§1) Solvent: 14 parts by weight of dimethylformamide
(§2) Emulsifier: 2 parts by weight of alkylaryl polyglycol ether
(§3) To produce a suitable active compound formulation, 1 part by weight of active compound is dissolved with the stated parts by weight of solvent and emulsifier and made up to the desired concentration with water. To produce further test concentrations, water is used for dilution. In the event that addition of ammonium salts or/and penetrants (rapeseed oil methyl ester) is required, these are each pipetted in at a concentration of 1000 ppm after the finished formulation solution has been diluted.
Cotton plants (Gossypium hirsutum) are sprayed with an active compound formulation of the desired concentration and, in each case after 12 and 19 days, populated with 5 caterpillars (L2) of the cotton bollworm (Heliothis armigera).
The kill is determined 6 days after the infection. 100% means that all the caterpillars have been killed and 0% means that none of the caterpillars have been killed.

[2] = test system: Spodoptera frugiperda; experiment: Spodoptera frugiperda spray test; settings: foliar, 168 h, application rate 100 g/ha, maize leaf discs, after 7 days, read-out: efficacy
Procedure: Spodoptera frugiperda—Spray Test
(§4) Solvent: • 78.0 parts by weight of acetone • 1.5 parts by weight of dimethylformamide
(§5) Emulsifier: alkylaryl polyglycol ether
To produce further test concentrations, the formulation is diluted with emulsifier-containing water.
After 7 days, the efficacy in % is determined. 100% means that all the caterpillars have been killed; 0% means that no caterpillar has been killed.

[3] = test system: Ctenocephalides felis; experiment: Ctenocephalides felis oral test; settings: 48 h, application rate 100 ppm, in citrated cattle blood, after 2 days, read-out: efficacy (kill in %)
Procedure, shortened: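 Adult unfed cat fleas (~20 per chamber) fed through parafilm membrane on citrated cattle blood containing compound (DMSO formulation diluted in blood to test concentration). Kill (%) scored after 2 days; 100% = all fleas dead, 0% = none.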

[4] = test system: Myzus persicae; experiment: Myzus persicae oral test; settings: 120 h, application rate 4 ppm, after 5 days, read-out: efficacy
Procedure, shortened: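 Aphid feeding test: compound dissolved in acetone, diluted with water and mixed with IPL41 insect medium plus sugar, offered through parafilm to a mixed population of green peach aphids. Mortality scored after 5 days as % efficacy (100% = all aphids dead, 0% = none dead).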

[5] = test system: Phaedon cochleariae; experiment: Phaedon cochleariae test on cabbage plants (PHAECO S); settings: 6 dai, read-out: % Efficacy
Procedure: Phaedon cochleariae Test (PHAECO S)
as §1, §2, §3
Cabbage plants (Brassica oleracea var. sabauda) are sprayed with an active compound formulation of the desired concentration and populated with 10 L2 larvae of the mustard beetle (Phaedon cochleariae).
After the desired time, the kill in % is determined. 100% means that all the larvae have been killed and 0% means that none of the larvae have been killed.

[6] = test system: Aphis gossypii; experiment: Aphis gossypii spray test (APHIGO S); settings: 144 h, 6 dat, read-out: % Efficacy
Procedure: Aphis gossypii—Spray Test (APHIGO S)
as §1, §5
(§6) To produce a suitable active compound preparation, 1 part by weight of active compound is dissolved using the stated parts by weight of solvent and made up with water containing an emulsifier concentration of 1000 ppm until the desired concentration is attained. To produce further test concentrations, the formulation is diluted with emulsifier-containing water. If the addition of ammonium salts or/and penetrants is required, these are each added in a concentration of 1000 ppm to the formulation solution.
Cotton plants (Gossypium hirsutum) heavily infested by the cotton aphid (Aphis gossypii) are sprayed with an active compound formulation of the desired concentration.
After the desired time, the kill in % is determined. 100% means that all the aphids have been killed; 0% means that no aphids have been killed.

[7] = test system: Phaedon cochleariae; experiment: Phaedon cochleariae spray test; settings: foliar, 168 h, application rate 100 g/ha, Chinese cabbage leaf discs, after 7 days, read-out: efficacy
Procedure, shortened: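 Chinese cabbage leaf discs sprayed with compound formulated in acetone/DMF and emulsifier-containing water, then infested with mustard beetle larvae after drying. Efficacy read after 7 days as % larvae killed.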

[8] = test system: Ctenocephalides felis; experiment: Ctenocephalides felis in vitro contact test with adult cat fleas; settings: application rate 5 μg/cm^2 (=500 g/ha); after 48 h; fleas dead or moribund
Procedure: Ctenocephalides felis—In Vitro Contact Tests with Adult Cat Fleas
For the coating of the test tubes, 9 mg of active compound are first dissolved in 1 ml of acetone p.a. and then diluted to the desired concentration with acetone p.a. 250 μl of the solution are distributed homogeneously on the inner walls and the base of a 25 ml glass tube by turning and rocking on an orbital shaker (rocking rotation at 30 rpm for 2 h). With 900 ppm of active compound solution and internal surface area 44.7 cm^2, given homogeneous distribution, an area-based dose of 5 μg/cm^2 is achieved.
After the solvent has evaporated off, the tubes are populated with 5-10 adult cat fleas (Ctenocephalides felis), sealed with a perforated plastic lid and incubated in a horizontal position at room temperature and ambient humidity. After 48 h, efficacy is determined. To this end, the tubes are stood upright and the fleas are knocked to the base of the tube. Fleas which remain motionless at the base or move in an uncoordinated manner are considered to be dead or moribund.
100% efficacy means that all the fleas were dead or moribund. 0% efficacy means that no fleas were harmed.

[9] = test system: Spodoptera frugiperda; experiment: Spodoptera frugiperda spray test (SPODFR), comparative; settings: 168 h, 0.8 g of ai/ha, 7 dat, read-out: % Efficacy
Procedure: Spodoptera frugiperda—Spray Test (SPODFR)
as §4, §5
as §6, with “water.” for “water. If the addition of ammonium salts or/and penetrants is required, these are each added in a concentration of 1000 ppm to the formulation solution.”
Leaf discs of maize (Zea mays) are sprayed with an active compound formulation of the desired concentration and, after drying, populated with caterpillars of the armyworm (Spodoptera frugiperda).
After the desired period of time, the efficacy in % is determined. 100% means that all the caterpillars have been killed; 0% means that no caterpillar has been killed.

Compound `CCS(=O)(=O)c1c(-c2nc3cc(C(F)(F)F)cnc3n2C)ncc2cc(Br)ccc12` [Example I-037, 7-Bromo-4-ethylsulfonyl-3-[3-methyl-6-(trifluoromethyl)imidazo[4,5-b]pyridin-2-yl]isoquinoline] has an Emax at 0.16 ppm ([1]; 288 h, infection 12 dat) of 80%, an Emax at 0.16 ppm ([1]; 456 h, infection 19 dat) of 70% and a pest or weed control at 100 g/ha [2] of 100%. It also gave a pest or weed control at 100 ppm [3] of 100%, a pest or weed control at 4 ppm [4] of 100% and an Emax at 0.16 ppm ([5]; 120 h, infection 5 dat) of 80%. For the same compound, the Emax at 0.16 ppm ([5]; 288 h, infection 12 dat) was 60%, the Emax at 0.8 ppm ([5]; 288 h, 0.8 ppm, infection 12 dat) was 100% and the Emax at 4 ppm [6] was 65%. It also gave a pest or weed control at 100 g/ha [7] of 100%, an efficacy [8] of 100% and an Emax at 0.8 g/ha [9] of 100%.
